{
  "source": "patent US20130237478A1",
  "about": "“COMPOSITIONS AND METHODS FOR TREATMENT OF PERIPHERAL VASCULAR DISEASE” (TARIX PHARMACEUTICALS LTD., priority 2012, published 2013)",
  "key": {"hind limb ischemia [1]": {"system": "hind limb ischemia", "test": "Capillary density in muscle sections, mouse hind limb ischemia model", "type": "in vivo, Balb/c mice", "settings": "Example 2, 49 days after treatment beginning", "excerpt": "(§1) The model used in this example is the same as for Example 1. Briefly, the hind limb ischemia model in mice used in this example involves two ligations of the proximal end of the femoral artery and its dissection between the two ligatures. The surgery causes obstruction of the blood flow and subsequently leads to severe ischemic damage (Goto, et al.; Kang, et al.). In this experiment, healthy adult female Balb/c mice were used. Hind limb ischemia was induced in mice using protocols previously described. Briefly, Balb/c female mice were maintained on a standard diet with water available ad libitum. Mice were anesthetized and an incision was made in the skin in the inguinal area. The femoral artery was ligated twice with 6-0 silk thread and transected between the ligatures after this the wound was closed with 4-0 silk thread and the mouse was allowed to recover.\nAn Angiotensin (1-7) polypeptide composition (PanCyte) and vehicle control (DPBS) were supplied as ready to use solutions and were stored at 4° C. until use. […]\nSections of muscle samples were taken from the same areas in 6-7 animals from each group. Capillaries were counted under a microscope in a total 12 random fields from different sections. Density was expressed as the mean number of capillaries per field of view. […]"}, "[2]": {"system": "Transient middle cerebral artery occlusion (tMCAO)", "test": "Stepping test (forelimb akinesia) after tMCAO stroke", "type": "in vivo, rats", "settings": "all experimental conditions (Table 22); by Day 28 post-surgery", "experimental": "For the purposes of this example, Transient middle cerebral artery occlusion (tMCAO) procedure Day is defined as “Day 1” in this study. On the day of surgery anesthesia were induced with 4% isoflurane in a mixture of 70% N2O and 30% O2 and maintained with 1.5-2% isoflurane.\nThe tMCAO procedures were performed according to the method described R. Schmid-Elsaesser et al. Briefly, the right CCA (Common Carotid Artery) was exposed through a midline neck incision and carefully dissected free from surrounding nerves and fascia—from its bifurcation to the base of the skull. The occipital artery branches of the ECA (External Carotid Artery) were then isolated, and these branches were dissected and coagulated. The ECA was dissected further distally and coagulated along with the terminal lingual and maxillary artery branches, which was then divided. The ICA (Internal Carotid Artery) was isolated and carefully separated from the adjacent vagus nerve, and the pterygopalatine artery was ligated close to its origin with a 5-0 nylon suture (SMI, Belgium). Next, a 4-0 silk suture was tied loosely around the mobilized ECA stump, and a 4 cm length of 4-0 monofilament nylon suture (the tip of the suture was blunted by using a flame, and the suture was coated with polylysine, prior to insertion) was inserted through the proximal ECA into the ICA and thence into the circle of Willis, effectively occluding the MCA. The surgical wound was closed and the animals were returned to their cages to recover from anesthesia. […]\nAnimals were tested for forelimb akinesia in a stepping test (ST). The animal was held with its hind limbs fixed with one hand and the forelimb not to be monitored with the other, while the unrestrained fore-paw touches the table. The number of adjusting steps are counted while the animal is moved sideways along the table surface (85 cm in approximately five seconds), in the forehand & backhand direction for both forelimbs. […]"}, "hind limb ischemia [3]": {"system": "hind limb ischemia", "test": "Blood flow by non contact laser Doppler in mouse hind limb ischemia model", "type": "in vivo, Balb/c mice", "excerpt": "A stable hind limb ischemia model has been described previously and is generally characterized by uniform ischemic damage useful for examining the effect of various therapies (Goto, et al. Tokai J Exp Clin Med, 31(3):128 2006; Kang Y, et al. PLoS One. 2009; 4(1):e4275)). The hind limb ischemia model in mice used in this example involves two ligations of the proximal end of the femoral artery and its dissection between the two ligatures. The surgery causes obstruction of the blood flow and subsequently leads to severe ischemic damage (Goto, et al.; Kang, et al.). In this experiment, healthy adult female Balb/c mice were used. Hind limb ischemia was induced in mice using protocols previously described. Briefly, Balb/c female mice were maintained on a standard diet with water available ad libitum. Mice were anesthetized and an incision was made in the skin in the inguinal area. The femoral artery was ligated twice with 6-0 silk thread and transected between the ligatures after this the wound was closed with 4-0 silk thread and the mouse was allowed to recover. […]\nBlood flow in legs from both sides of the animals was measured with a non contact laser Doppler before surgery and on days: 1, 7, 15, 21, 28, 35, 42 and 49 post operation. Blood flow measurements were expressed as the ratio of the flow in the ischemic limb to that in the normal limb.\nas §1\nAn Angiotensin (1-7) polypeptide composition (PanCyte) and vehicle control (DPBS) were supplied as ready to use solutions and were stored at 4° C. until use. PanCyte was injected subcutaneously (500 μg/kg or 50 μg/kg) daily starting on day 1, 24 hours after inducing ischemia, until the end of the study. Negative control mice were injected subcutaneously with a vehicle.\nThe model and procedures used for this example is the same as for those in Examples 1 and 2, unless otherwise specified.\nAn Angiotensin (1-7) polypeptide composition (PanCyte, cyclized Asp^1-Arg^2-Val^3-Ser^4-Ile^5-His^6-Cys (SEQ ID NO:22)) and vehicle control (DPBS) were supplied as ready to use solutions and were stored at 4° C. until use. In groups 2F-5F, PanCyte was injected subcutaneously (1 μg/kg, 5 μg/kg, 25 μg/kg, 50 μg/kg) daily starting on day 1, 24 hours after inducing ischemia, until the end of the study. In group 6F, an osmotic Alzet pump was implanted subcutaneously and provided for continuous release of PanCyte over the duration of the study. Negative control mice were injected subcutaneously with vehicle (DPBS)."}},
  "note": "Entries after “also recorded” stand apart in the source; their conditions may differ. Positions of bridges follow the written chain, without caps; N, C: chain ends. No end group written: not given here.",
  "data": [
    {"substance": "cyclized Asp^1-Arg^2-Val^3-Ser^4-Ile^5-His^6-Cys (SEQ ID NO:22) (DRVSIHC; bridge 4-7; not fully specified; printed as Asp1-Arg2-Val3-Ser4-Ile5-His6-Cys7) [PanCyte, cyclic angiotensin peptide]", "values": [
      {"measurement": "capillary density (number of capillaries per field) vs control", "setting": "hind limb ischemia [1]; 50 μg/kg SC daily", "result": "significantly increased the number of capillaries"},
      {"measurement": "capillary density (number of capillaries per field) vs control", "setting": "hind limb ischemia [1]; 500 μg/kg SC daily", "result": "significantly increased the number of capillaries"},
      {"measurement": "stepping test performance vs vehicle", "setting": "[2]", "result": "significantly improved the performance"},
      {"measurement": "blood flow restored", "setting": "hind limb ischemia [3]; Example 2, 50 μg/kg SC", "result": "85 % of its normal values"},
      {"measurement": "improvement in blood flow vs vehicle", "setting": "hind limb ischemia [3]; Example 2, 50 μg/kg SC daily (3F), from day 21 up to day 49, p<0.05-0.001", "result": "statistically significant improvement in blood flow"},
      {"measurement": "blood flow restored", "setting": "hind limb ischemia [3]; Example 2, 500 μg/kg SC", "result": "85 % of its normal values"},
      {"measurement": "improvement in blood flow vs vehicle", "setting": "hind limb ischemia [3]; Example 2, 500 μg/kg SC daily (2F), from day 21 up to day 49, p<0.05-0.001", "result": "statistically significant improvement in blood flow"},
      {"measurement": "improvement in blood flow vs vehicle", "setting": "hind limb ischemia [3]; Example 3, 1 μg/kg SC daily (2F), days 42 and 49", "result": "blood flow improvement reached statistically significance"},
      {"measurement": "improvement in blood flow vs vehicle", "setting": "hind limb ischemia [3]; Example 3, 5 μg/kg SC daily (3F), days 42 and 49", "result": "blood flow improvement reached statistically significance"},
      {"measurement": "improvement in blood flow vs vehicle", "setting": "hind limb ischemia [3]; Example 3, 25 μg/kg SC daily (4F), days 42 and 49", "result": "blood flow improvement reached statistically significance"},
      {"measurement": "improvement in blood flow vs vehicle", "setting": "hind limb ischemia [3]; Example 3, 50 μg/kg SC daily injections (5F), day 35 up to day 49", "result": "significant improvement in blood flow"},
      {"measurement": "improvement in blood flow vs vehicle", "setting": "hind limb ischemia [3]; Example 3, 50 μg/kg continuous SC by Alzet pump (6F), day 14 up to day 49", "result": "Statistically significant improvement in blood flow; also recorded: particularly good and early blood perfusion restoration"},
      {"measurement": "blood flow restored", "setting": "hind limb ischemia [3]; Example 3, SC 1-50 μg/kg, dose dependent manner", "result": "up to 84 % of its normal values"}
    ]}
  ]
}
